Test results published in patent US20260242395A1, “AMINOHETEROARYL KINASE INHIBITORS” (ALLORION THERAPEUTICS INC, priority 2022, published 2026).

Tests used:
Format in all cases: biochemical
CDK1/CyclinB = molecular target: T1, CDK1/CyclinB (Homo sapiens, UniProt P06493); experiment: CDK1/CyclinB kinase inhibitory activity (Caliper mobility shift); conditions: enzyme 3 nM, ATP 20 μM, 28° C. 30 min; read-out: CDK1/Cyclin B1 IC50
T1 construct: purchased Millipore 14-450M
Procedure: CDK1/CyclinB kinase inhibitory activity (IC50): 5 μl of various dilutions of test compound in 1× kinase buffer (50 mM HEPES pH 7.5, 10 mM MgCl2, 2 mM DTT and 0.01% Brij-35) was mixed with 10 μL of CDK1/CyclinB (Millipore, 14-450M #, final concentration 3 nM in 1× Kinase buffer) in 384 plates and incubated at room temperature for 10 min. To initiate each reaction, 10 μL of peptide solution containing fluorescently-labeled-peptide 18(5-FAM-QSPKKG-CONH2) (GL, 114202 #, final concentration 3000 nM) and ATP (final concentration 20 μM) in 1× Kinase buffer was added to each of the wells containing test compound and CDK1/CyclinB mixture. The reaction is then allowed to proceed at 28° C. for 30 min and terminated by the addition of 25 μL stop buffer (100 mM HEPES pH 7.5, 50 mM EDTA, 0.2% Coating Reagent #3 (Perkin Elmer, 760050 #) and 0.015% Brij-35).
(§1) Following the kinase reaction, Caliper EZ reader II (Downstream voltages: −500V, Upstream voltages: −2250V, Base pressure −0.5 PSI, Screen pressure −1.2 PSI) was used to separate the phosphorylated (product) and the unphosphorylated (substrate) fluorescently-labeled peptide 18 based on their different mobility. Both substrate and product were measured and the ratio of these values were used to generate % conversion by Caliper EZ reader II. These conversion values were then transformed into % inhibition of kinase activity using the formula: % Inhibition=[(MA−X)/(MA−MI)]×100% where MA=conversion value of DMSO only controls, MI=conversion value of no enzyme controls and X=conversion value at any given compound dose. IC50 values were then calculated by plotting dose-response curves and then using the XLfit application in Excel software.

CDK9/CyclinT1 = molecular target: T2, CDK9/CyclinT1 (Homo sapiens, UniProt P50750); experiment: CDK9/CyclinT1 kinase inhibitory activity (Caliper mobility shift); conditions: enzyme 12.5 nM, ATP 10M, 28° C. 30 min; read-out: CDK9/Cyclin T1 IC50
T2 construct: purchased Millipore 14-685M
T2 sequence (P50750 whole entry): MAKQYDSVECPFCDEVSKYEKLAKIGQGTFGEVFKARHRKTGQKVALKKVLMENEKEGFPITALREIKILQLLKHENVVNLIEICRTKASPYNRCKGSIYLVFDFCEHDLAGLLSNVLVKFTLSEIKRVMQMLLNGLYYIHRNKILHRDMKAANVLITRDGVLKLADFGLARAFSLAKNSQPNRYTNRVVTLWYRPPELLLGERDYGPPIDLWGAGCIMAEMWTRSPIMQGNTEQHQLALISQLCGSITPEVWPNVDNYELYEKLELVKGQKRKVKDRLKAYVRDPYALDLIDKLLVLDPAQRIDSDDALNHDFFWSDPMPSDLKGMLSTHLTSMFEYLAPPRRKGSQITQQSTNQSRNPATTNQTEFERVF
T2 sequence (O60563 whole entry partner): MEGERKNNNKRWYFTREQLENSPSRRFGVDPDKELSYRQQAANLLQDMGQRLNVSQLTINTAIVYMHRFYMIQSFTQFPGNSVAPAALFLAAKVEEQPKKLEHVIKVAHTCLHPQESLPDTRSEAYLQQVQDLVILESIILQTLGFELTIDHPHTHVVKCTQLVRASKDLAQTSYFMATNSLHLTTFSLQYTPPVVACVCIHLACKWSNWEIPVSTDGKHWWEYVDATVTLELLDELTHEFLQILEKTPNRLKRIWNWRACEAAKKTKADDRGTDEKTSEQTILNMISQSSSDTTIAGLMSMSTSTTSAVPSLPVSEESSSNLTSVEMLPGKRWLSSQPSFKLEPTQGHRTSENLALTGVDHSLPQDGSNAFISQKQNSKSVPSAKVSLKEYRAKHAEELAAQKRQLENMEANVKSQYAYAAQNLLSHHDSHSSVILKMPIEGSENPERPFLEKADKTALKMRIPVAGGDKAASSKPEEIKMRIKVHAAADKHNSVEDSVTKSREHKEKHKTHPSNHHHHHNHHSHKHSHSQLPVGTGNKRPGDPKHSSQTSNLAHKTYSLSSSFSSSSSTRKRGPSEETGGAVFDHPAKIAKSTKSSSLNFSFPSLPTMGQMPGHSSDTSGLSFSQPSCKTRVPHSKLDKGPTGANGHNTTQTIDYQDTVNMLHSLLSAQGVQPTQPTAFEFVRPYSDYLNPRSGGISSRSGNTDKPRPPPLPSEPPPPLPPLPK
Procedure: (§2) CDK9/CyclinT1 kinase inhibitory activity (IC50): 5 μl of various dilutions of test compound in 1× kinase buffer (20 mM HEPES, pH 7.5, 10 mM MgCl2, 2 mM DTT and 0.01% Triton X-100) was mixed with 10 μL of CDK9/CyclinT1 (Millipore, 14-685M #, final concentration 12.5 nM in 1× Kinase buffer) in 384 plates and incubated at room temperature for 10 min. To initiate each reaction, 10 μL of peptide solution containing fluorescently-labeled -peptide CTD3 (5-FAM-[…], GL, SY346885 #, final concentration 3000 nM) and ATP (final concentration 10M) in 1× Kinase buffer was added to each of the wells containing test compound and CDK9/CyclinT1 mixture. The reaction is then allowed to proceed at 28° C. for 30 min and terminated by the addition of 25 μL stop buffer (100 mM HEPES pH 7.5, 50 mM EDTA, 0.2% Coating Reagent #3 (Perkin Elmer, 760050 #) and 0.015% Brij-35).
as §1, with “CTD3” for “18”

CDK7/CyclinH/MAT1 = molecular target: T3, CDK7/CyclinH/MAT1 (Homo sapiens, UniProt P50613); experiment: CDK7/CyclinH/MAT1 kinase inhibitory activity (Caliper mobility shift); conditions: enzyme 12.5 nM, ATP 70 μM, 28° C. 30 min; read-out: CDK7/Cyclin H/MAT1 IC50
T3 construct: purchased Millipore 14-476M
T3 sequence (P50613 whole entry): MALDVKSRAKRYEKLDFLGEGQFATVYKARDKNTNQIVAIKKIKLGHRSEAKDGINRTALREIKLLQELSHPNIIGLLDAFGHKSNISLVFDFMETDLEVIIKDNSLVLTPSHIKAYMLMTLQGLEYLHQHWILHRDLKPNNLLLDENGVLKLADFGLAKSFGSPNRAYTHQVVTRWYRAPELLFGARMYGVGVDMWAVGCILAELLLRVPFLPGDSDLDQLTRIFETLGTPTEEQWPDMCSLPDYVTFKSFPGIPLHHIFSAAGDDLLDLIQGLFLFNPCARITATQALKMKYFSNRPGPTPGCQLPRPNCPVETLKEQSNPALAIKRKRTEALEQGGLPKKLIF
T3 sequence (P51946 whole entry partner): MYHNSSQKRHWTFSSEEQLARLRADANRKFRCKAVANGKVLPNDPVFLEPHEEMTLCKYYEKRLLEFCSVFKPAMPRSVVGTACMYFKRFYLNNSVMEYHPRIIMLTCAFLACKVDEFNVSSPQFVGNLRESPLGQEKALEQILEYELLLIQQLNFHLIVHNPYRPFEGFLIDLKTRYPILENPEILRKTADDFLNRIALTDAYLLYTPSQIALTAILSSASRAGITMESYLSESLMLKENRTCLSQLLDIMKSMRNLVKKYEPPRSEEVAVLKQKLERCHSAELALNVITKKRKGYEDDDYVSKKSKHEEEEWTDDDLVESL
T3 sequence (P51948 whole entry partner): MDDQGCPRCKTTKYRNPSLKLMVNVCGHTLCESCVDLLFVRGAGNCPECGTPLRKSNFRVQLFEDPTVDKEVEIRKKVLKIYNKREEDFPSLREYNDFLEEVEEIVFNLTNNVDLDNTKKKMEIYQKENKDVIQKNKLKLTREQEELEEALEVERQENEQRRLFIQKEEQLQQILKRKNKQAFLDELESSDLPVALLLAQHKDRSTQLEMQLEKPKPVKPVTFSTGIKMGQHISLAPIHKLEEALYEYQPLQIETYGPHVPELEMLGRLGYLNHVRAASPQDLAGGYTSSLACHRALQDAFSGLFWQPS
Procedure: as §2, with “CDK7/CyclinH/MAT1” for “CDK9/CyclinT1”, “14-476M” for “14-685M”, “fluorescently-labeled-peptide” for “fluorescently-labeled -peptide”, “70 μM)” for “10M)”
as §1, with “the phosphoiylated” for “the phosphorylated”, “peptide CTD3” for “peptide 18”

T1 sequence (P06493 whole entry): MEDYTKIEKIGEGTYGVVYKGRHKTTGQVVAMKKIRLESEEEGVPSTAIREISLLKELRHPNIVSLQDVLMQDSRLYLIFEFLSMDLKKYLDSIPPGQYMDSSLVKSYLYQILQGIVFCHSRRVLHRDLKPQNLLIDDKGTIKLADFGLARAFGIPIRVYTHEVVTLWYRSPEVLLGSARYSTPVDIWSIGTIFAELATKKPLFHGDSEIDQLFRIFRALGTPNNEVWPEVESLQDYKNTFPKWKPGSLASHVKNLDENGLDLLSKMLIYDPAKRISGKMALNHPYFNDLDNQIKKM
T1 sequence (P14635 whole entry partner): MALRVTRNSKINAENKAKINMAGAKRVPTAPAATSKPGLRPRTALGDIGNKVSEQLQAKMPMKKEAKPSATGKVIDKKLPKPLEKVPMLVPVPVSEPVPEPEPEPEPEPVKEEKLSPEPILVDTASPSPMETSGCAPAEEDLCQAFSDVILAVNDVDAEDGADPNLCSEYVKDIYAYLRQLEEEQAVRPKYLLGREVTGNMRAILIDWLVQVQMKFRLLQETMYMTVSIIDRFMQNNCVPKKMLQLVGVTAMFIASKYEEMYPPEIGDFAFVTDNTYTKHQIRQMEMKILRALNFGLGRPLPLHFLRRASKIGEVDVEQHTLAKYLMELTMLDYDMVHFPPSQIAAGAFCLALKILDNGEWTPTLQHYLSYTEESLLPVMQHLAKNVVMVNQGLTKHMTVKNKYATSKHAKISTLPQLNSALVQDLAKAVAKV

Row | IC50 (CDK1/CyclinB) [nM] | IC50 (CDK9/CyclinT1) [nM] | IC50 (CDK7/CyclinH/MAT1) [nM] | SMILES
1 | ≥ 1000 | 100 to 1000 | ≥ 1000 | CC(C)n1c(C(C)(C)O)nc2c(F)cc(-c3cc(N[C@@H]4CCOC[C@H]4O)ncc3Cl)cc21 [Example 12, (3S,4R)-4-((5-chloro-4-(4-fluoro-2-(2-hydroxypropan-2-yl)-1-isopropyl-1H-benzo[d]imidazol-6-yl)pyridin-2-yl)amino)tetrahydro-2H-pyran-3-ol]
2 | 100 to 1000 | ≥ 1000 | ≥ 1000 | Cc1[nH]cnc1-c1cnc2c(F)cc(-c3nc(N[C@@H]4CCOC[C@H]4O)ncc3Cl)cc2c1 [Example 18, (3S,4R)-4-((5-chloro-4-(8-fluoro-3-(5-methyl-1H-imidazol-4-yl)quinolin-6-yl)pyrimidin-2-yl)amino)tetrahydro-2H-pyran-3-ol]
3 | 10 to 100 | 10 to 100 | 10 to 100 | O[C@@H]1COCC[C@H]1Nc1ncc(Cl)c(-c2cc(F)c3c(c2)N2CCNC[C@@H]2CO3)n1 [Example 19, (3S,4R)-4-((5-chloro-4-((R)-7-fluoro-1,2,3,4,4a,5-hexahydrobenzo[b]pyrazino[1,2-d][1,4]oxazin-9-yl)pyrimidin-2-yl)amino)tetrahydro-2H-pyran-3-ol]
4 | 100 to 1000 | 100 to 1000 | 100 to 1000 | CC(C)(O)c1cnc2c(F)cc(-c3nc(N[C@@H]4CCOC[C@H]4O)ncc3F)cc2c1Cl [Example 22, (3S,4R)-4-((4-(4-chloro-8-fluoro-3-(2-hydroxypropan-2-yl)quinolin-6-yl)-5-fluoropyrimidin-2-yl)amino)tetrahydro-2H-pyran-3-ol]
5 | 100 to 1000 | 10 to 100 | 100 to 1000 | CC1(C)Cc2cnc3c(F)cc(-c4nc(N[C@@H]5CCOC[C@H]5O)ncc4F)cc3c2CN1 [Example 24, (3S,4R)-4-((5-fluoro-4-(7-fluoro-3,3-dimethyl-1,2,3,4-tetrahydrobenzo[c][2,6]naphthyridin-9-yl)pyrimidin-2-yl)amino)tetrahydro-2H-pyran-3-ol]
6 | 10 to 100 | 10 to 100 | 10 to 100 | O[C@@H]1COCC[C@H]1Nc1cc(-c2cc(F)c3ncc4c(c3c2)CNCC4)c(Cl)cn1 [Example 25]
7 | 100 to 1000 | 10 to 100 | ≥ 1000 | CC1(C)Cc2cnc3c(F)cc(-c4nc(N[C@@H]5CCOC[C@H]5O)ncc4Cl)cc3c2CN1 [Example 30]
8 | ≥ 1000 | 100 to 1000 | ≥ 1000 | CNC(C)(C)c1cnc2c(F)cc(-c3nc(N[C@@H]4CCOC[C@H]4O)ncc3Cl)cc2c1 [Example 36]
9 | ≥ 1000 | ≥ 1000 | ≥ 1000 | Cc1nc2c(F)cc(-c3nc(N[C@@H]4CCOC[C@H]4O)ncc3Cl)cc2c2c1CCN(C)C2 [Example 37]
10 | ≥ 1000 | ≥ 1000 | ≥ 1000 | Cc1c(C(C)(C)O)cnc2c(C)cc(-c3nc(N[C@@H]4CCOC[C@H]4O)ncc3Cl)cc12 [Example 58]
11 | ≥ 1000 | 100 to 1000 | ≥ 1000 | [2H]C([2H])([2H])C(O)(c1cc2cc(-c3nc(N[C@@H]4CCOC[C@H]4O)ncc3Cl)cc(F)c2nc1C)C([2H])([2H])[2H] [Example 60, (3S,4R)-4-((5-chloro-4-(8-fluoro-3-(2-hydroxypropan-2-yl-1,1,1,3,3,3-d6)-2-methylquinolin-6-yl)pyrimidin-2-yl)amino)tetrahydro-2H-pyran-3-ol]

Further lines, the compound ahead of its results:

Row | SMILES | IC50 (CDK1/CyclinB) [nM] | IC50 (CDK9/CyclinT1) [nM] | IC50 (CDK7/CyclinH/MAT1) [nM]
12 | CC(C)(N)c1cnc2c(F)cc(-c3nc(N[C@@H]4CCOC[C@H]4O)ncc3Cl)cc2c1 [Example 14, (3S,4R)-4-((4-(3-(2-aminopropan-2-yl)-8-fluoroquinolin-6-yl)-5-chloropyrimidin-2-yl)amino)tetrahydro-2H-pyran-3-ol] | 10 to 100 | 100 to 1000 | 100 to 1000
13 | CC(C)(O)c1cnc2c(F)cc(-c3nc(N[C@@H]4CCOC[C@H]4O)ncc3Cl)cc2c1Cl [Example 17, (3S,4R)-4-((5-chloro-4-(4-chloro-8-fluoro-3-(2-hydroxypropan-2-yl)quinolin-6-yl)pyrimidin-2-yl)amino)tetrahydro-2H-pyran-3-ol] | 100 to 1000 | 100 to 1000 | ≥ 1000
14 | O[C@@H]1COCC[C@H]1Nc1ncc(Cl)c(-c2cc(F)c3ncc4c(c3c2)CNC2(CC2)C4)n1 [Example 21, (3S,4R)-4-((5-chloro-4-(7-fluoro-1,4-dihydro-2H-spiro[benzo[c][2,6]naphthyridine-3,1′-cyclopropan]-9-yl)pyrimidin-2-yl)amino)tetrahydro-2H-pyran-3-ol] | 100 to 1000 | 100 to 1000 | ≥ 1000
15 | Cc1c(C(C)(C)O)cnc2c(F)cc(-c3nc(N[C@@H]4CCOC[C@H]4O)ncc3F)cc12 [Example 23, (3S,4R)-4-((5-fluoro-4-(8-fluoro-3-(2-hydroxypropan-2-yl)-4-methylquinolin-6-yl)pyrimidin-2-yl)amino)tetrahydro-2H-pyran-3-ol] | 100 to 1000 | 100 to 1000 | 10 to 100
16 | CC(C)(N)c1cnc2ccc(-c3nc(N[C@@H]4CCOC[C@H]4O)ncc3Cl)cc2c1 [Example 26] | 100 to 1000 | 100 to 1000 | ≥ 1000
17 | O[C@@H]1COCC[C@H]1Nc1ncc(Cl)c(-c2cc(F)c3ncc(C4(O)CC4)cc3c2)n1 [Example 29] | 100 to 1000 | 100 to 1000 | ≥ 1000
18 | CC(C)(O)c1cnc2c(F)cc(-c3nc(N[C@@H]4CCOC[C@H]4O)ncc3C#N)cc2c1Cl [Example 41] | ≥ 1000 | ≥ 1000 | ≥ 1000
19 | CC1(C)Cc2cnc3c(F)cc(-c4nc(N[C@@H]5CCOC[C@H]5O)ncc4C#N)cc3c2CN1 [Example 49] | ≥ 1000 | 100 to 1000 | ≥ 1000
20 | CC(C)(O)c1cnc2c(F)cc(-c3nc(Nc4ccc(-c5c[nH]cn5)cn4)ncc3F)cc2c1Cl [Example 52] | ≥ 1000 | ≥ 1000 | ≥ 1000
21 | O[C@@H]1COCC[C@H]1Nc1ncc(F)c(-c2cc(F)c3ncc4c(c3c2)CNC2(CC2)C4)n1 [Example 56] | 10 to 100 | 10 to 100 | 10 to 100
